Test results as given in US9371320B2, “Heterocyclic compound” (TAKEDA PHARMACEUTICAL COMPANY LIMITED, priority 2012, dated 2016).
Where two headings read alike, the source gives them in different places.

Legend:
[1] = molecular target: T1, Tyk2 (Homo sapiens, UniProt P29597); experiment: Tyk2 enzyme inhibition test (LANCE method); assay type: biochemical; conditions: for inhibition at 1 µM / Inhibitory rate (%) Tyk2 1 μM: test compound 1 μM; for inhibition at 1 µM: read-out: Inhibitory rate (%) Tyk2 1 μM; for inhibition at 10 µM: test compound 10 μM, read-out: Inhibitory rate (%) Tyk2 10 μM
T1 construct: purchased Invitrogen
T1 sequence (P29597 whole entry): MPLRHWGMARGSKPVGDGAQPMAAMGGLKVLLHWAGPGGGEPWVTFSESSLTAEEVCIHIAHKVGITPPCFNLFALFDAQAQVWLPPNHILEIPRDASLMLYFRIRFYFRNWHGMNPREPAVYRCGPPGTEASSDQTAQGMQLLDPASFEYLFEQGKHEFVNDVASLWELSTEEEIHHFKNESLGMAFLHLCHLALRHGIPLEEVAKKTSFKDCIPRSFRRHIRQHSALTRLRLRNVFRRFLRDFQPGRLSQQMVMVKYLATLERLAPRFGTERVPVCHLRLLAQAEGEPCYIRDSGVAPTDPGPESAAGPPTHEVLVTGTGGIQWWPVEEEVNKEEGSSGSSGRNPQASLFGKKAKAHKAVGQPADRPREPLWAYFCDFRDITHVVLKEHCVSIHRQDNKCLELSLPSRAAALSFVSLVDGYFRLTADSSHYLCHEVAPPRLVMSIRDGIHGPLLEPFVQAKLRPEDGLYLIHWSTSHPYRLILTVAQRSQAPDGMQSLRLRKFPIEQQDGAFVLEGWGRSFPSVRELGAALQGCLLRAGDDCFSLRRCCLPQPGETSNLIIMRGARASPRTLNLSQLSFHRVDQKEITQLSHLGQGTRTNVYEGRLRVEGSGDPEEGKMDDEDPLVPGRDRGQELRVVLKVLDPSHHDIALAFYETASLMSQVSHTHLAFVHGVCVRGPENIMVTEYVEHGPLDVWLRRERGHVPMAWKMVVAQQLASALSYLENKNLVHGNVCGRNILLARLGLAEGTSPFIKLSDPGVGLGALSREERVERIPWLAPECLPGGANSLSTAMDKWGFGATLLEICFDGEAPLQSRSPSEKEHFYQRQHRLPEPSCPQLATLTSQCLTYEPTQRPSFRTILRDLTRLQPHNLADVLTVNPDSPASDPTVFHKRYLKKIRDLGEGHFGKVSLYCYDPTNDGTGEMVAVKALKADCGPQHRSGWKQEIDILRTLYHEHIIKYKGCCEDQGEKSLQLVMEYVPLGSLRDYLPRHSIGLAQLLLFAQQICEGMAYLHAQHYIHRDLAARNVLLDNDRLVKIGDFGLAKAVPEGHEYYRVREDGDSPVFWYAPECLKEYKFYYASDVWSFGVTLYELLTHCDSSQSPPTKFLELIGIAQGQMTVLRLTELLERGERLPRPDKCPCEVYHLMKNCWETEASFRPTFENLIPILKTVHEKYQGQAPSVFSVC
Experimental: Tyk2 Enzyme Inhibition Test
(§1) Tyk2 enzyme inhibitory activity of test compounds was measured by LANCE method (PerkinElmer). First, a test compound diluted with assay buffer (50 mM HEPES (pH=7.5), 10 mM MgCl2, 1 mM EGTA, 2 mM DTT, 0.01% Tween20, 0.01% BSA) was added to 384-well plate at 2 μL each. Then, a Tyk2 (Invitrogen) solution and a fluorescence-labeled peptide substrate (ULight-JAK1, PerkinElmer) solution diluted with assay buffer at 375 ng/mL and 300 nM, respectively were added at 2 μL each. Then, enzyme reaction was started by adding 2 μL each of ATP solution prepared with assay buffer at 30 μM. After the reaction at room temperature for 1 hr, Detection Buffer (PerkinElmer) prepared to be 20 mM EDTA, 4 nM europium-labeled anti-phosphotyrosine antibody (PerkinElmer) was added at 6 μL each. After standing at room temperature for 1 hr, fluorescence intensity (excitation wavelength 340 nm, fluorescence wavelength 665 nm, delay time 100 microsecond) was measured by a plate reader, Envision (PerkinElmer). The inhibitory activity of each compound was calculated as relative value where fluorescence intensity of a well without enzyme is considered as 100% inhibition.

[2] = molecular target: T2, JAK1 (Homo sapiens, UniProt P23458); experiment: JAK1 enzyme inhibition test (LANCE method); assay type: biochemical; conditions: for inhibition at 1 µM / Inhibitory rate (%) JAK1 1 μM: test compound 1 μM; for inhibition at 1 µM: read-out: Inhibitory rate (%) JAK1 1 μM; for inhibition at 10 µM: read-out: Inhibitory rate (%) JAK1 10 μM
T2 construct: purchased Invitrogen
T2 sequence (P23458 whole entry): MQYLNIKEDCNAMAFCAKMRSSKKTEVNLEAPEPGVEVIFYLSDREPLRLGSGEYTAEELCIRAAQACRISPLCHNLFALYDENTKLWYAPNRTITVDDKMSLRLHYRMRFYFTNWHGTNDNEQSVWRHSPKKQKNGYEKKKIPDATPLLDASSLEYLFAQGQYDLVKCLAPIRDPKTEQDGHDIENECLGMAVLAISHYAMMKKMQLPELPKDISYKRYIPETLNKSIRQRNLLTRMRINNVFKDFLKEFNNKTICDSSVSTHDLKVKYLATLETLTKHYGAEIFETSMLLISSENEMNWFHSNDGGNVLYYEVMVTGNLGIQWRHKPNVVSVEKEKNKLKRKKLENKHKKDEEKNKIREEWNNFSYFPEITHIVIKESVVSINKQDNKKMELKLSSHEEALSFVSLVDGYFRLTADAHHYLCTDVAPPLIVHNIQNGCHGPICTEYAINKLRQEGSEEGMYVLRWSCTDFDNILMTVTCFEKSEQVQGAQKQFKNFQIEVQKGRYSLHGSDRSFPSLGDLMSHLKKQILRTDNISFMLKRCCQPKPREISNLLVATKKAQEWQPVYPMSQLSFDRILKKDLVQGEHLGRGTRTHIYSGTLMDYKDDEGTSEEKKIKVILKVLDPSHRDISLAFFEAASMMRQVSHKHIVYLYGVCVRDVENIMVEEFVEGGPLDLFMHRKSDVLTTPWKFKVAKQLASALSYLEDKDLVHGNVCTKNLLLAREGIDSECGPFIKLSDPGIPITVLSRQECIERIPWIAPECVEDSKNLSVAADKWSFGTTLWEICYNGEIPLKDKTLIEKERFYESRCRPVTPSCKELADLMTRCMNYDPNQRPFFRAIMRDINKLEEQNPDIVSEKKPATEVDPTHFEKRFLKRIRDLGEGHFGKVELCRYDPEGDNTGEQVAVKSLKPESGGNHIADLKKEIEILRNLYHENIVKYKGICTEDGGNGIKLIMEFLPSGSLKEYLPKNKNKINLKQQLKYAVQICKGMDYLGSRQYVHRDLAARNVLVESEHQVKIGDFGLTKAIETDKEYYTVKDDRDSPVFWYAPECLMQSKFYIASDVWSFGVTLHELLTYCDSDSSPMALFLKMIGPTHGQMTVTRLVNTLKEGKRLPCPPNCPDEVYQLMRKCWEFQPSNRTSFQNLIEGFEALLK
Experimental: JAK1 Enzyme Inhibition Test
as §1, with “JAK1 enzyme” for “Tyk2 enzyme”, “a JAK1” for “a Tyk2”, “at 187.5” for “at 375”, “at 150” for “at 30”

`NS(=O)(=O)c1ccc(-c2nn(CC3COC3)c3cc[nH]c(=O)c23)cc1` [Example 105, 4-(1-(oxetan-3-ylmethyl)-4-oxo-4,5-dihydro-1H-pyrazolo[4,3-c]pyridin-3-yl)benzenesulfonamide] gave an inhibition at 1 µM [1] of 66% and an inhibition at 1 µM [2] of 88%.
`CC(=O)N1CCN(c2ccc(-c3nn(-c4c(F)cccc4F)c4cc[nH]c(=O)c34)cc2)CC1` [Example 279, 3-(4-(4-acetylpiperazin-1-yl)phenyl)-1-(2,6-difluorophenyl)-1,5-dihydro-4H-pyrazolo[4,3-c]pyridin-4-one] was tested, and the inhibition at 1 µM [1] was 99% and the inhibition at 1 µM [2] was 96%.
In the case of `NS(=O)(=O)c1ccc(-c2nn(C3CCCOC3)c3cc[nH]c(=O)c23)cc1` (stereo not drawn) [Example 28, 4-(4-oxo-1-(tetrahydro-2H-pyran-3-yl)-4,5-dihydro-1H-pyrazolo[4,3-c]pyridin-3-yl)benzenesulfonamide], the “Inhibitory rate (%) Tyk2 1 μM” value [1] is reported as 97% and the “Inhibitory rate (%) JAK1 1 μM” value [2] is reported as 99%.
`O=c1[nH]ccc2c(-c3ccccc3)nn(-c3ccsc3)c12` [Example 11, 3-phenyl-1-(3-thienyl)-1,6-dihydro-7H-pyrazolo[3,4-c]pyridin-7-one] gave an inhibition at 1 µM [1] of 66% and an inhibition at 1 µM [2] of 55%.
Work on `O=c1[nH]ccc2c1c(C1=CCOCC1)nn2C1CCCC1` [Example 42, 1-cyclopentyl-3-(3,6-dihydro-2H-pyran-4-yl)-1,5-dihydro-4H-pyrazolo[4,3-c]pyridin-4-one] yielded an inhibition at 1 µM [1] of 51% and an inhibition at 1 µM [2] of 53%.
`NC(=O)c1cc(-c2nn(C3CCC(=O)CC3)c3cc[nH]c(=O)c23)cs1` [Example 170, 4-(4-oxo-1-(4-oxocyclohexyl)-4,5-dihydro-1H-pyrazolo[4,3-c]pyridin-3-yl)thiophene-2-carboxamide] was tested, and the inhibition at 1 µM [1] was 98% and the inhibition at 1 µM [2] was 99%.
`NS(=O)(=O)c1ccc(-c2nn(CC3CCOC3)c3cc[nH]c(=O)c23)cc1` (stereo not drawn) [Example 115, 4-(4-oxo-1-(tetrahydrofuran-3-ylmethyl)-4,5-dihydro-1H-pyrazolo[4,3-c]pyridin-3-yl)benzenesulfonamide] was tested, and the inhibition at 1 µM [1] was 66% and the inhibition at 1 µM [2] was 87%.
With `NS(=O)(=O)c1ccc(-c2nn(C3CCC(O)CC3)c3cc[nH]c(=O)c23)cc1` (stereo not drawn) [Example 126, 4-(1-(4-hydroxycyclohexyl)-4-oxo-4,5-dihydro-1H-pyrazolo[4,3-c]pyridin-3-yl)benzenesulfonamide] the “Inhibitory rate (%) Tyk2 1 μM” value [1] was 98% and the “Inhibitory rate (%) JAK1 1 μM” value [2] was 99%.
`N#CCc1cc(-c2cn(C3CCCC3)c3c(C#N)c[nH]c(=O)c23)cs1` [Example 93, 3-(5-(cyanomethyl)-3-thienyl)-1-cyclopentyl-4-oxo-4,5-dihydro-1H-pyrrolo[3,2-c]pyridine-7-carbonitrile] gave an inhibition at 1 µM [1] of 99% and an inhibition at 1 µM [2] of 98%.
Work on `NS(=O)(=O)c1ccc(-c2nn(C3CCCC3)c3c(Br)c[nH]c(=O)c23)cc1` [Example 101, 4-(7-bromo-1-cyclopentyl-4-oxo-4,5-dihydro-1H-pyrazolo[4,3-c]pyridin-3-yl)benzenesulfonamide] yielded an inhibition at 1 µM [1] of 91% and an inhibition at 1 µM [2] of 80%.
In the case of `CNC(=O)Cc1ccc(F)c(-c2nn(-c3c(F)cccc3F)c3cc[nH]c(=O)c23)c1` [Example 293, 2-(3-(1-(2,6-difluorophenyl)-4-oxo-4,5-dihydro-1H-pyrazolo[4,3-c]pyridin-3-yl)-4-fluorophenyl)-N-methylacetamide], the inhibition at 10 µM [1] is reported as 22% and the inhibition at 10 µM ([2]; test compound 10 μM) is reported as 0%.
Compound `COC(=O)c1c[nH]c(=O)c2c(-c3csc(-c4noc(=O)[nH]4)c3)cn(C3CCCC3)c12` [Example 74, methyl 1-cyclopentyl-4-oxo-3-(5-(5-oxo-4,5-dihydro-1,2,4-oxadiazol-3-yl)-3-thienyl)-4,5-dihydro-1H-pyrrolo[3,2-c]pyridine-7-carboxylate] has an inhibition at 1 µM [1] of 85% and an inhibition at 1 µM [2] of 44%.
`N#Cc1c[nH]c(=O)c2c(-c3csc(C(N)=O)c3)nn(C3CCCC3)c12` [Example 165, 4-(7-cyano-1-cyclopentyl-4-oxo-4,5-dihydro-1H-pyrazolo[4,3-c]pyridin-3-yl)thiophene-2-carboxamide] showed an inhibition at 1 µM [1] of 98% and an inhibition at 1 µM [2] of 96%.
Compound `CC(=O)N1CCC(c2ccc(-c3nn(-c4c(F)cccc4F)c4cc[nH]c(=O)c34)cc2)CC1` [Example 301, 3-(4-(1-acetylpiperidin-4-yl)phenyl)-1-(2,6-difluorophenyl)-1,5-dihydro-4H-pyrazolo[4,3-c]pyridin-4-one] has an inhibition at 1 µM [1] of 99% and an inhibition at 1 µM [2] of 97%.
Compound `O=c1[nH]ccc2c1c(-c1ccc(F)cc1)nn2C1CCCC1` [Example 54, 1-cyclopentyl-3-(4-fluorophenyl)-1,5-dihydro-4H-pyrazolo[4,3-c]pyridin-4-one] has an inhibition at 1 µM [1] of 91% and an inhibition at 1 µM [2] of 91%.
`NC(=O)c1ccc(-c2nn(C3CCCC3)c3cc[nH]c(=O)c23)cc1` [Example 142, 4-(1-cyclopentyl-4-oxo-4,5-dihydro-1H-pyrazolo[4,3-c]pyridin-3-yl)benzamide] showed an inhibition at 1 µM [1] of 97% and an inhibition at 1 µM [2] of 96%.
In the case of `O=c1[nH]ccc2c1c(C1=CCCCC1)nn2C1CCCC1` [Example 41, 3-(cyclohex-1-en-1-yl)-1-cyclopentyl-1,5-dihydro-4H-pyrazolo[4,3-c]pyridin-4-one], the inhibition at 10 µM [1] is reported as 49% and the inhibition at 10 µM ([2]; test compound 10 μM) is reported as 38%.
For `N#Cc1cc(-c2nn(C3CCCC3)c3cc[nH]c(=O)c23)cs1` [Example 14, 4-(1-cyclopentyl-4-oxo-4,5-dihydro-1H-pyrazolo[4,3-c]pyridin-3-yl)thiophene-2-carbonitrile], the inhibition at 1 µM [1] was 98% and the inhibition at 1 µM [2] was 99%.
Compound `O=C1Cc2ccc(-c3nn(-c4c(F)cccc4F)c4c(Cl)c[nH]c(=O)c34)cc2N1` [Example 227, 7-chloro-1-(2,6-difluorophenyl)-3-(2-oxo-2,3-dihydro-1H-indol-6-yl)-1,5-dihydro-4H-pyrazolo[4,3-c]pyridin-4-one] has an inhibition at 1 µM [1] of 97% and an inhibition at 1 µM [2] of 54%.
Work on `CN1CCN(c2ccc(-c3nn(-c4c(F)cccc4F)c4c(Cl)c[nH]c(=O)c34)cc2)C1=O` [Example 239, 7-chloro-1-(2,6-difluorophenyl)-3-(4-(3-methyl-2-oxoimidazolidin-1-yl)phenyl)-1,5-dihydro-4H-pyrazolo[4,3-c]pyridin-4-one] yielded an inhibition at 1 µM [1] of 99% and an inhibition at 1 µM [2] of 46%.
With `N#Cc1cccc(F)c1-n1nc(-c2ccc(N3CCOCC3)nc2)c2c(=O)[nH]ccc21` [Example 306, 3-fluoro-2-(3-(6-(morpholin-4-yl)pyridin-3-yl)-4-oxo-4,5-dihydro-1H-pyrazolo[4,3-c]pyridin-1-yl)benzonitrile] the inhibition at 1 µM [1] was 98% and the inhibition at 1 µM [2] was 90%.
Work on `O=c1[nH]ccc2c1c(-c1ccccc1)nn2C1CCCC1` [Example 43, 1-cyclopentyl-3-phenyl-1,5-dihydro-4H-pyrazolo[4,3-c]pyridin-4-one] yielded an inhibition at 1 µM [1] of 91% and an inhibition at 1 µM [2] of 87%.
Compound `N#Cc1c[nH]c(=O)c2c(-c3ccccn3)cn(C3CCCC3)c12` [Example 132, 1-cyclopentyl-4-oxo-3-(pyridin-2-yl)-4,5-dihydro-1H-pyrrolo[3,2-c]pyridine-7-carbonitrile] has an inhibition at 1 µM [1] of 74% and an inhibition at 1 µM [2] of 27%.
For `CNC(=O)COc1ccc(-c2nn(-c3c(F)cccc3F)c3c(Cl)c[nH]c(=O)c23)cc1` [Example 221, 2-(4-(7-chloro-1-(2,6-difluorophenyl)-4-oxo-4,5-dihydro-1H-pyrazolo[4,3-c]pyridin-3-yl)phenoxy)-N-methylacetamide], the inhibition at 1 µM [1] was 99% and the inhibition at 1 µM [2] was 80%.
`CCC(COC)n1cc(-c2ccc(C#N)cc2)c2c(=O)[nH]ccc21` (stereo not drawn) [Example 24, 4-(1-(1-methoxybutan-2-yl)-4-oxo-4,5-dihydro-1H-pyrrolo[3,2-c]pyridin-3-yl)benzonitrile] was tested, and the inhibition at 1 µM [1] was 33% and the inhibition at 1 µM [2] was 35%.
Compound `N#Cc1c[nH]c(=O)c2c1c(C1CCCC1)nn2-c1csc(C(N)=O)c1` [Example 66, 4-(4-cyano-3-cyclopentyl-7-oxo-6,7-dihydro-1H-pyrazolo[3,4-c]pyridin-1-yl)thiophene-2-carboxamide] has an inhibition at 1 µM [1] of 92% and an inhibition at 1 µM [2] of 66%.
With `NC(=O)c1cc(-c2nn([C@H]3CC[C@H](O)CC3)c3cc[nH]c(=O)c23)cs1` [Example 183, 4-(1-(trans-4-hydroxycyclohexyl)-4-oxo-4,5-dihydro-1H-pyrazolo[4,3-c]pyridin-3-yl)thiophene-2-carboxamide] the inhibition at 1 µM [1] was 100% and the inhibition at 10 µM ([2]; test compound 10 μM (Ex. 182-220), beside Tyk2 1 μM) was 100%.
